The text below walks through data of article PMC4945863, “Dual thio-digalactoside-binding modes of human galectins as the structural basis for the design of potent and selective inhibitors” (Scientific Reports, 2016).

One assay concerns the target T1, galectin-7 (Homo sapiens, UniProt P47929).
T1 construct: (residues 1-136); 6xHis; made in house; host or cells: Escherichia coli BL21 (DE3)
The assay is described as follows: Isothermal titration calorimetry (ITC), galectin-7. The format is binding. How it is done: (§1) Human galectins-1, -3CRD and -7 were produced in E. coli according to previous studies.
(§2) Samples for use in ITC were diluted to appropriate concentrations in dialysate buffer (25 mM Tris-HCl pH 8.0, 300 mM NaCl and 5 mM β-mercaptoethanol) saved from the ultrafiltration step. All samples were filtered with 0.22 μm cutoff filters (Millipore) and extensively degassed with stirring prior to use. […] To avoid heating effects due to differing concentration of DMSO in the injectant and protein solutions, 5% DMSO was added to the protein. Software provided by Microcal was used for the curve fitting of the experimental data as well as for calculation of the thermodynamic data. Specifically, all ITC data were corrected for the heat of dilution of the titrant by subtracting the excess heats at high molar ratios of ligands to galectins. Binding stoichiometry, enthalpy and equilibrium association constants were determined by fitting the corrected data to a bimolecular interaction model and summarised in Table 1.
(§3) Isothermal titration calorimetry (ITC). Samples for use in ITC were diluted to appropriate concentrations in dialysate buffer (25 mM
(§4) Tris-HCl pH 8.0, 300 mM NaCl and 5 mM β-mercaptoethanol) saved from the ultrafiltration step. All samples were filtered with […] cutoff filters (Millipore) and extensively degassed with stirring prior to use.
(§5) Isothermal titration calorimetry was performed using MicroCal
(§6) Auto-iTC200 (MicroCal, INc., Northampton, MA) at 298K. […]
(§7) order to avoid heating effects due to differing concentration of DMSO in the injectant and protein solutions, 5% DMSO was added to the protein.
(§8) Software provided by Microcal was used for the curve fitting of the experimental data as well as for calculation of the thermodynamic data.
(§9) Specifically, all ITC data were corrected for the heat of dilution of the titrant by subtracting the excess heats at high molar ratios of ligands to galectins. Binding stoichiometry, enthalpy and equilibrium association constants were determined by fitting the corrected data to a bimolecular
A general note: In ITC the heat of successive injections is recorded.

The target in assay [1] is T2, galectin-3 (Homo sapiens, UniProt P17931).
T2 construct: CRD domain of galectin-3 (residues 113-250); 6xHis; made in house; host or cells: Escherichia coli BL21 (DE3)
T2 sequence (P17931 113-250): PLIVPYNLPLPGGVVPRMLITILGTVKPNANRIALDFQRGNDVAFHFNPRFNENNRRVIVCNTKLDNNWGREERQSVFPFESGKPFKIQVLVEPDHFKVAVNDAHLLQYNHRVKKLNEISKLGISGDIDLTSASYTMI
Nature of the assay: Isothermal titration calorimetry (ITC), galectin-3. It counts as binding. How it is done:
as §1, §2, §3, §4, §5, §6, §7, §8, §9

The target of another assay is T3, galectin-1 (Homo sapiens, UniProt P09382).
T3 construct: full-length galectins-1 (residues 1-135); 6xHis; made in house; host or cells: Escherichia coli BL21 (DE3)
T3 sequence (P09382 whole entry, the tested form may be a part): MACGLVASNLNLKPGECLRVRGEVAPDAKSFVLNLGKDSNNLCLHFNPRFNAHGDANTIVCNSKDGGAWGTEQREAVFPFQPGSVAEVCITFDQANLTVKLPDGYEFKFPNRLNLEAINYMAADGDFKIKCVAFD
The assay is described as follows: Isothermal titration calorimetry (ITC), galectin-1. The format is binding. As to the method: as §1, §2, §3, §4, §5, §6, §7, §8, §9

In assay [2] the target is galectin-3. Conditions: cited from earlier work.

T1 sequence (P47929 whole entry, the tested form may be a part): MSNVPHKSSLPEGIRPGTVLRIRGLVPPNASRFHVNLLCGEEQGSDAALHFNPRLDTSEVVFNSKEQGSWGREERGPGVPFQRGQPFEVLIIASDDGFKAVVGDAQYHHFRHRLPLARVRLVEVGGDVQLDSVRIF

Take `OC[C@H]1O[C@@H](S[C@@H]2O[C@H](CO)[C@H](O)[C@H](n3cc(-c4cccc(F)c4)nn3)[C@H]2O)[C@H](O)[C@@H](n2cc(-c3cccc(F)c3)nn2)[C@H]1O` [TD139, 3,3’-deoxy-3,3’-bis-(4-[m-fluorophenyl]-1H-1,2,3-triazol-1-yl)-thio-digalactoside]: at galectin-7 (298 K), the “-TΔS” value came to 3.2 ± 0.09 kcal/mol, the dissociation constant Kd is 38 ± 0.71 µM, the “n (stoichiometry)” value is listed as 0.99 ± 0.10 and the ΔG is -6.1 ± 0.06 kcal/mol. Also, on galectin-7 (galectin-7), the “difference in binding free energy ΔΔG(TD139-TDG)” value was -1.7 kcal/mol, the “increase in affinity compared with TDG binding” value is given as 15 fold and the “ΔΔH(TD139–TAZTDG)” value is on record as 0.7 kcal/mol. For the same molecule, on galectin-3 [1] (ITC, 298 K), the “-TΔS” value worked out at 8.3 ± 0.90 kcal/mol, the “n (stoichiometry)” value is 0.96 ± 0.01, the ΔG was -9.9 ± 0.37 kcal/mol and the ΔH was -18.2 ± 0.82 kcal/mol. Further, on galectin-3 [1] (ITC, galectin-3), the “binding enhancement compared with TDG” value is given as ~ 1000 fold, the “change in binding free energy ΔΔG(TD139-TDG)” value is -4.3 kcal/mol, the “enthalpy change ΔΔH(TD139-TDG)” value is -8.8 kcal/mol and the “entropy change –TΔΔS(TD139-TDG)” value is 4.6 kcal/mol. The “ΔΔH(TD139–TAZTDG)” value at galectin-3 [1] (ITC, galectin-3) was -3.5 kcal/mol. Moreover, the “increase in binding affinity compared with L3” value at galectin-3 [1] (galectin-3, versus literature Kd of L3) was 50 fold. Besides, at galectin-1 (298 K), the “-TΔS” value was determined as 7.6 ± 0.43 kcal/mol, the “n (stoichiometry)” value is 0.96 ± 0.04 and the ΔH was -16.7 ± 0.40 kcal/mol. For the same molecule, on galectin-1 (galectin-1), the “binding enhancement compared with binding to TDG” value is given as ~ 300 fold and the “ΔΔH(TD139–TAZTDG)” value was -0.6 kcal/mol.

In the case of `OC[C@H]1O[C@@H](S[C@@H]2O[C@H](CO)[C@H](O)[C@H](n3cc(-c4cccc(F)c4)nn3)[C@H]2O)[C@H](O)[C@@H](O)[C@H]1O` [TAZTDG, 3-deoxy-3-(4-[m-fluorophenyl]-1H-1,2,3-triazol-1-yl)-thio-digalactoside], the “-TΔS” value came out at 4.4 ± 0.04 kcal/mol at galectin-7 (298 K); 6.4 ± 1.02 kcal/mol at galectin-3 [1] (ITC, 298 K); 8.6 ± 0.51 kcal/mol on galectin-1 (298 K). Moreover, the Kd was 87 ± 3.21 µM at galectin-7 (298 K); 0.84 ± 0.41 µM on galectin-3 [1] (ITC, 298 K, galectin-3CRD); 3.24 ± 0.3 µM on galectin-1 (298 K). Moreover, the “n (stoichiometry)” value on galectin-7 (298 K) turned out to be 0.89 ± 0.01; at galectin-3 [1] (ITC, 298 K), 0.92 ± 0.08; on galectin-1 (298 K), 1.06 ± 0.01. Besides, the ΔG on galectin-7 (298 K) was -5.5 ± 0.01 kcal/mol; on galectin-3 [1] (ITC, 298 K) it was -8.3 ± 0.25 kcal/mol; at galectin-1 (298 K), -7.5 ± 0.05 kcal/mol. Further, the ΔH at galectin-7 (298 K) is -10.0 ± 0.04 kcal/mol; on galectin-3 [1] (ITC, 298 K) it was -14.7 ± 0.99 kcal/mol; at galectin-1 (298 K), -16.1 ± 0.51 kcal/mol. The Relative affinity is on record as 6.6 at galectin-7 (298 K, relative to TDG = 1); 89.7 at galectin-3 [1] (ITC, 298 K, relative to TDG = 1); 20.7 on galectin-1 (298 K, relative to TDG = 1). For the same molecule, the “ΔΔH(TAZTDG–TDG)” value on galectin-7 (galectin-7) is -2.4 kcal/mol; on galectin-3 [1] (ITC, galectin-3) it was -5.3 kcal/mol; at galectin-1 (galectin-1), -4.5 kcal/mol.

Take “3′-(4-methoxy-2,3,5,6-tetrafluorobenzamido)-N-acetyl-lactosamine [L3]”: the Kd at galectin-3 [2] was 3.3 µM.

As to `OC[C@H]1O[C@@H](S[C@@H]2O[C@H](CO)[C@H](O)[C@H](O)[C@H]2O)[C@H](O)[C@@H](O)[C@H]1O` [TDG, thio-digalactoside], at galectin-7 (298 K), the “-TΔS” value amounted to 3.2 ± 0.55 kcal/mol, the “n (stoichiometry)” value amounted to 0.94 ± 0.02, the ΔG was -4.4 ± 0.06 kcal/mol and the ΔH is -7.6 ± 0.55 kcal/mol. Besides, at galectin-3 [1] (ITC, 298 K), the “-TΔS” value worked out at 3.7 ± 0.48 kcal/mol, the “n (stoichiometry)” value was 1.02 ± 0.05 and the ΔH was -9.4 ± 0.48 kcal/mol. For the same molecule, at galectin-1 (298 K), the “-TΔS” value came out at 5.9 ± 0.27 kcal/mol, the “n (stoichiometry)” value was 1.02 ± 0.10 and the ΔH is -11.6 ± 0.26 kcal/mol.

For orientation: Kd means a measure of binding affinity in units of concentration.
